Measured values: the NIST ThermoML archive (doi:10.1021/je0501991)
Numbers after ± are expanded uncertainties.

How the values were obtained:
[1] = refractive index (Na D-line) (dimensionless); details: 101.33 kPa, Liquid, Standard Abbe refractometry
[2] = 101.33 kPa, Liquid
[3] = molar heat capacity at constant pressure; xn = mol fraction of the nth substance listed; details: Liquid, x1 = 1

Compound: OCCc1ccccc1 [2-phenylethanol]
- refractive index ([1]; 308.15 K): 1.5267 ± 0.0008
- mass density ([2]; 308.15 K): 1008.79 ± 0.54 kg/m3
- viscosity ([2]; 308.15 K): 7.438 ± 0.12 mPa·s

Compound: OCCCc1ccccc1 [3-phenyl-1-propanol]
- refractive index ([1]; 308.15 K): 1.521 ± 0.001
- viscosity ([2]; 298.15 K): 10.13 ± 0.17 mPa·s
- mass density ([2]; 308.15 K): 991.17 ± 0.53 kg/m3

Compound: OCc1ccccc1 [benzenemethanol]
- refractive index ([1]; 298.15 K): 1.5377 ± 0.0005
- refractive index ([1]; 308.15 K): 1.535 ± 0.0005
- mass density ([2]; 298.15 K): 1041.65 ± 0.27 kg/m3
- viscosity ([2]; 298.15 K): 5.211 ± 0.076 mPa·s
- mass density ([2]; 308.15 K): 1033.66 ± 0.25 kg/m3
- viscosity ([2]; 308.15 K): 4.125 ± 0.062 mPa·s

Compound: C[S+](C)[O-] [dimethyl sulfoxide]
- refractive index ([1]; 298.15 K): 1.4775 ± 0.0004
- refractive index ([1]; 308.15 K): 1.473 ± 0.0004
- viscosity ([2]; 298.15 K, Capillary tube (Ostwald / Ubbelohde) method): 1.989 ± 0.023 mPa·s
- mass density ([2]; 298.15 K, Vibrating tube method): 1095.68 ± 0.09 kg/m3
- viscosity ([2]; 308.15 K, Capillary tube (Ostwald / Ubbelohde) method): 1.645 ± 0.019 mPa·s
- mass density ([2]; 308.15 K, Vibrating tube method): 1085.31 ± 0.09 kg/m3

Compound: C[S+](C)[O-] [dimethyl sulfoxide] + OCCCc1ccccc1
- molar heat capacity at constant pressure ([3]; 298.15 K, 101 kPa): 142.7 ± 11 J/K/mol
- molar heat capacity at constant pressure ([3]; 308.15 K, 101 kPa): 143.5 ± 12 J/K/mol
- molar heat capacity at constant pressure ([3]; 318.15 K, 101 kPa): 144.6 ± 12 J/K/mol

Compound: C[S+](C)[O-] [dimethyl sulfoxide] + OCCc1ccccc1
- molar heat capacity at constant pressure ([3]; 298.15 K, 101.33 kPa): 142.7 ± 11 J/K/mol
- molar heat capacity at constant pressure ([3]; 308.15 K, 101.33 kPa): 143.5 ± 12 J/K/mol
- molar heat capacity at constant pressure ([3]; 318.15 K, 101.33 kPa): 144.6 ± 12 J/K/mol

Compound: C[S+](C)[O-] [dimethyl sulfoxide] + OCc1ccccc1
- molar heat capacity at constant pressure ([3]; 298.15 K, 101.33 kPa): 142.7 ± 11 J/K/mol
- molar heat capacity at constant pressure ([3]; 308.15 K, 101.33 kPa): 143.5 ± 12 J/K/mol
- molar heat capacity at constant pressure ([3]; 318.15 K, 101.33 kPa): 144.6 ± 12 J/K/mol
